Measured values as given in patent US7700584B2 (Hangzhou Minsheng Pharmaceuticals Co., Ltd., priority 2004, dated 2010).

Experiments:
Format in all cases: cell-based
Conditions in all cases: 50 μg/ml
[1] = system: U-937 human histocytic lymphoma; test: In vitro inhibition rate to tumor cells (MTT), U-937
Description: (§1) (1) Single cell suspension was seeded into 96-well plates (×3) (the cells was diluted in the PRMI-1640 minimum medium to 3×10^4 cells/ml, […] diluted cells/well). […] The experiments were performed in quadruplicate.
(§2) (2) The medium was removed. Solutions of the anti-tumor agents (15 compounds) were prepared in a freshly prepared medium at the concentrations indicated in the following Table. […] of the solution was added into each well. Incubation was continued for 48 hours.
(§3) (3) […] of 2 mg/ml MTT was added into each well, and incubated for 4 hours.
(§4) (4) The medium was removed from the well. The microplates were swiftly turned down to throw-off the medium. […] DMSO was added into each well, and vortexed at room temperature for 10 minutes.
(§5) (5) OD value (λ=570 nm) was measured with an Enzyme-Linked Detector.
(§6) (6) The inhibition rates (IR) of cell growth were respectively calculated based on the following equation: IR(%)=[1−(average OD of the experimental group/average OD of the control group)]×100%

[2] = system: A-549 human lung adenocarcinoma; test: In vitro inhibition rate to tumor cells (MTT), A-549
Description: as §1, §2, §3, §4, §5, §6

[3] = system: Bel-7402 human hepatic carcinoma; test: In vitro inhibition rate to tumor cells (MTT), Bel-7402
Description: as §1, §2, §3, §4, §5, §6

[4] = system: MCF-7 human mammary adenocarcinoma; test: In vitro inhibition rate to tumor cells (MTT), MCF-7
Description: as §1, §2, §3, §4, §5, §6

[5] = system: SMMC-7721 human hepatic carcinoma; test: In vitro inhibition rate to tumor cells (MTT), SMMC-7721
Description: as §1, §2, §3, §4, §5, §6

[6] = system: HL-60 human promyelocytic leukemia; test: In vitro inhibition rate to tumor cells (MTT), HL-60
Description: as §1, §2, §3, §4, §5, §6

[7] = system: Hela human cervical carcinoma; test: In vitro inhibition rate to tumor cells (MTT), Hela
Description: as §1, §2, §3, §4, §5, §6

[8] = system: LLC mouse Lewis lung carcinoma; test: In vitro inhibition rate to tumor cells (MTT), LLC
Description: as §1, §2, §3, §4, §5, §6

Structure (SMILES)	inhibition rate, Results (%) U-937 ([1]; Table 1) [%]	inhibition rate, Results (%) U-937 ([1]; Table 2 (repeated screening)) [%]	inhibition rate, Results (%) A-549 ([2]; Table 1) [%]	inhibition rate, Results (%) A-549 ([2]; Table 2 (repeated screening)) [%]	inhibition rate, Results (%) Bel-7402 ([3]; Table 1) [%]	inhibition rate, Results (%) Bel-7402 ([3]; Table 2 (repeated screening)) [%]	inhibition rate, Results (%) MCF-7 ([4]; Table 1) [%]	inhibition rate, Results (%) MCF-7 ([4]; Table 2 (repeated screening)) [%]	inhibition rate, Results (%) SMMC-7721 ([5]; Table 1) [%]	inhibition rate, Results (%) SMMC-7721 ([5]; Table 2 (repeated screening)) [%]	inhibition rate, Results (%) HL-60 ([6]; Table 1) [%]	inhibition rate, Results (%) HL-60 ([6]; Table 2 (repeated screening)) [%]	inhibition rate, Results (%) Hela ([7]; Table 1) [%]	inhibition rate, Results (%) Hela ([7]; Table 2 (repeated screening)) [%]	inhibition rate, Results (%) LLC ([8]; Table 1) [%]	inhibition rate, Results (%) LLC ([8]; Table 2 (repeated screening)) [%]
CC(C)C1CC23OC1(O)CC(CO[N+](=O)[O-])(O[N+](=O)[O-])C2CCC3C (centres unmarked) [Compound 31, Curcumol dinitrate]	−0.68	−12.61	8.65	4.82	0.23	8.42	16.75	14.87	−1.96	−4.56	16.50	2.78	57.98	55.49	1.13	1.25
CC(C)C1CC23OC1(O)CC(CN1CCNCC1)(N1CCNCC1)C2CCC3C (centres unmarked) [Compound 41, Curcumol bispiperazine]	8.65	−1.02	−2.50	−7.89	16.78	1.23	36.45	31.28	4.42	3.12	6.78	1.86	50.32	51.23	30.96	23.65
CC(C)C1CC23OC1(O)CC(C)(Br)C2CCC3C (centres unmarked) [Compound 34, Curcumol monobromide without double bond]	35.23	23.56	2.31	9.23	1.11	0.59	1.23	4.56	−5.25	0.95	2.96	3.14	50.64	51.89	−18.52	−11.22
CC(C)C1CC23OC1(O)CC(C)(N1CCNCC1)C2CCC3C.Cl (centres unmarked) [Compound 44, Curcumol piperazine hydrochloride without double bond]	35.64	23.56	23.01	20.33	−6.54	0.23	25.55	24.11	−10.53	−7.89	3.71	5.37	55.14	50.01	23.35	17.565
CC(=O)OC12CC(=O)C3CCC(C)C3(CC1C(C)C)O2 (centres unmarked) [Compound 49, Curzerenone acetate]	78.65	75.23	5.36	4.23	2.69	14.02	0.65	1.56	−11.3	−1.78	55.35	57.89	79.8	75.65	−0.15	0.12
C=C1CC2(OC(C)=O)OC3(CC2C(C)C)C(C)CCC13 (centres unmarked) [Compound 1, Curcumol acetate]	45.45	34.26	−9.16	−6.32	32.12	25.32	45.6	41.02	23.10	28.23	23.12	12.03	51.23	55.98	1.30	1.30
CCCCNC1(C)CC2(OC)OC3(CC2C(C)C)C(C)CCC13 (centres unmarked) [Compound 45, Curcumol methyl ether n-butyl amine without double bond]	32.19	12.32	2.10	0.32	3.01	5.02	26.78	20.73	−10.73	−11.23	6.14	1.23	59.45	53.12	2.74	1.32
COC12CC(=CBr)C3CCC(C)C3(CC1C(C)C)O2 (centres unmarked) [Compound 26, Curcumol methyl ether bromide]	55.32	54.23	−3.24	−3.12	3.45	−3.45	43.21	41.21	0.97	−0.97	−0.23	−0.23	51.00	56.55	11.77	−11.77
CC(C)C1CC23OC1(O)CC(CN1CCNCC1)(N1CCNCC1)C2CCC3C.Cl (centres unmarked) [Compound 42, Curcumol bispiperazine hydrochloride]	−12.5	−1.03	10.16	3.12	2.15	14.36	34.21	30.12	6.86	0.79	2.73	3.14	55.64	54.03	9.99	1.79
CC(C)C1CC23OC1(O)CC(=CO)C2CCC3C (centres unmarked) [Compound 18, Curcumol monohydroxy compound]	70.30	69.23	−2.24	−0.32	13.58	11.23	57.89	54.32	13.39	0.69	4.26	7.32	60.32	65.03	4.18	0.22
CC(C)C1CC23OC1(O)CC(C)(O)C2CCC3C (centres unmarked) [Compound 35, Curcumol monohydroxy compound without double bond]	7.36	0.23	3.89	2.77	3.65	6.78	3.89	9.87	5.23	4.32	3.12	3.99	59.88	64.01	8.97	8.23
